From patent publication US6953671B2, “Plasma phospholipid transfer protein (PLTP) deficiency represents an anti-atherogenic state and PLTP inhibitor has anti-atherosclerosis action” (The Trustees of Columbia University in the City of New York, priority 2001, dated 2005)
Where a SMILES comes first, the peptide text is derived from it. [ ]: non-standard residue; d: D form. Nle = CCCC[C@H](N)C(=O)O

How the values were obtained:
[1] = target: plasma phospholipid transfer protein (PLTP) (UniProt P55065); test: PLTP inhibition assay (radiolabeled phospholipid transfer from vesicles to HDL by plasma); format: biochemical; settings: 3 μl plasma, 0-50 μM compound, 400 μl assay
Experimental: PLTP activity assays: Egg phosphatidylcholine (10 μmol) containing 10 nmol of [3H]PC (L-a-dipalmitoyl-[2-palmitoyl-9,10-3H(N)]-phosphatidylcholine) was dried under a stream of nitrogen, resuspended in 1 ml of a solution of 10 mM Tris, 150 mM NaCl, 1 mM ethylenediaminetetraacetic acid (EDTA) (pH 7.4), and then probe-sonicated and centrifuged. Transfer of radiolabeled phospholipid was measured by incubating 3 μl of plasma with radiolabeled phospholipid vesicles (125 nmol PC) and HDL (250 μg protein) in a final volume of 400 μl at 37° C. for 1 hour.
The following compound, which is a known cholesteryl ester transfer protein (CETP) inhibitor (compound No. 3 in Okamoto et al.^38) was dissolved in dimethlysulfonyl oxide (DMSO) (stock solution 2 mM): [drawing 1] A final volume of 400 μl assay system was prepared containing phosphatidylcholine, HDL, 3 μl of plasma, and 0-50 μM of the compound. Vesicles were subsequently precipitated by the addition of 300 μl of a solution of 500 mM NaCl, 215 mM MnCl2, 445 U/ml heparin, and the radioactivity of a 500-μl aliquot of the supernatant was measured.

[2] = system: hepatocytes from apoBTg/PLTP0 and apoBTg mice; test: apoB/BLp accumulation in media of primary hepatocytes with or without heparin; format: cell-based, mouse; settings: 10 mg/ml heparin, 3 hr
Experimental: (§1) Primary hepatocyte culture, immunoprecipitation and analysis of apoB or albumin from culture medium or cel lysate were performed as described previously^18. A, pulse change experiment, apoB in the cell media; B, pulse chase experiment, apoB in the cell lysate; C, determination of apoB secretion rate in the presence and absence of the proteoscflal inhibitor ALLN. Hepatocytes from apoBTg/PLTP0 and apoBTg mice were radiolabeled continuously with ^35Smethionine/cystein with or without 40 μg/ml ALLN fcr 30 mm. Cells ware lysed and lysates immunoprecipitated with apoB antibody. Samples were separated on SDS PAGE. D, determination of apoB secretion rate in the presence and absence of heparin. Hepatocytes from apoBTG/PLTP0 and apoBTg mice were radiolabeled continuously with ^35Smethionine/cystein with or without 10 mg/ml heparin for 3 hr. […]
(§2) Immunoprecipitation and analysis of apoB from culture medium or cell lysate: The primary hepatocytes were allowed to attach to dishes for 90 minutes. […] At each chase time point (30 minutes, 1 hour and 2 hours), medium apoB and cell lysate apoB were immunoprecipitated by apoB antibody together with protein A/G agarose, the precipitates were size-fractionated on a 4% SDS PAGE gel, the gel was dried, and the incorporation of ^35S into apoB48 and apoB100 was assessed with a Fuji Bio-Imaging Analyzer (Fuji Medical Systems, Stamford, Conn.).

[3] = system: hepatocytes from apoBTg/PLTP0 and apoBTg mice; test: apoB in cell lysates of radiolabeled primary hepatocytes with or without ALLN; format: cell-based, mouse; settings: 40 μg/ml ALLN, 30 min labeling; especially PLTP deficient cells
Experimental: as §1, §2

## CC(C)(C)C(=O)Nc1ccccc1SSc1ccccc1NC(=O)C(C)(C)C [compound #3]
[1]
  Ki: 15 µM

## heparin
[2]; PLTP deficient hepatocytes
  accumulation of BLp in media: failed to increase BLp accumulation
[2]; hepatocytes from apoB transgenic mice
  accumulation of BLp in media: increased the accumulation of BLp in media

## CCCC[C@@H](C=O)NC(=O)[C@H](CC(C)C)NC(=O)[C@H](CC(C)C)NC(C)=O [ALLN, N-acetyl-leu-leu-norleu-AL] (Ac-Leu-Leu-[Nle]-aldehyde)
[3]
  levels of apoB within cells: increased levels of apoB within cells
